We go through 8 compounds from patent US4707497A, “Phenylethanolaminotetralines, a process for their preparation and pharmaceutical compositions containing them” (Sanofi, priority 1985, dated 1987).

Counter-ions that a name gives are not always drawn.

For data set [1], the system named is epididymal white adipose tissue adipocytes. The data set is described as follows: Lipolytic activity in vitro on white adipose tissue (WAT) adipocytes, release of free fatty acids. It counts as cell-based. The note with it: Rattus norvegicus, Adipocyte; compound 10^-6 M; per cent of noradrenaline effect at 5.10^-6 M (maximal effect); 37° C., 1 hour, pH 7.4. The source says: (§1) More particularly, the compounds of the present invention show a remarkable lipolytic activity in mammals in the tests predictive of said activity, such as in the test "in vitro" on the brown adipose tissue (BAT) and on the white adipose tissue (WAT) and in the test "in vivo", based upon the thermogenesis in the rat. More particularly, in the test "in vitro" male rats, each weighing 100-125 g, are sacrificed and the adipocytes of the interscapular brown adipose tissue and those of the epididymal white adipose tissue are dissected out, according to the method of M. Rodbell, J. Biol. Chem. 1967, 242, 5744-5750 and separately treated as follows. The adipocytes are incubated with the compound to be tested at a temperature of 37° C. for an hour in Phosphate Krebs-Ringer-(4%) albumine medium at pH 7.4. The long chain fatty acids that are released in the medium are determinated by the method reported by D.I. Trout and al., J. Lip. Res. 1960, 1, 199-202, and compared with the amount of the triglycerides present in the adipocytes, determined by the method of E. Van Handel and al., J. Lab. Clin. Med., 1957, 50, 152-157. The results obtained for representative compounds of the present invention are shown in TABLE I, where the lipolytic activity of the compounds at the dose of 10^-6 M, measured as release of free fatty acids (μEq), is expressed as per cent of the noradrenaline effect at the dose of 5.10^-6 M (maximal effect on both BAT and WAT).

Data set [2] relates to adipocytes of the interscapular brown adipose tissue. The data set is described as follows: Lipolytic activity in vitro on brown adipose tissue (BAT) adipocytes, release of free fatty acids. Conditions: Rattus norvegicus, Adipocyte; compound 10^-6 M; per cent of noradrenaline effect at 5.10^-6 M (maximal effect); 37° C., 1 hour, pH 7.4. Format: cell-based.
Description: as §1

The next data set relates to interscapular BAT. In words: Activity on brown adipose tissue thermogenesis in vivo in anaesthetized rats. Conditions: 7.5 mg/kg intraperitoneally. Also noted: species or system rat. The protocol: In the test "in vivo", the activity on brown adipose tissue thermogenesis is determined by the method reported by P. J. Wellman, Research Communication in Chemical Pathology and Pharmacology 1983, 41, 173-176.
The anaesthesied rats are treated intraperitoneally with the vehicle and 7.5 mg/kg of the compound to be tested. The interscapular BAT and rectal temperatures are recorded 10, 20 and 30 minutes after the injection.

For a further data set, the system named is mice. The data set is described as follows: Acute toxicity in mice. It counts as in vivo, mouse. Conditions: oral dose up to 200 mg/kg.

Turning to `Oc1ccc2c(c1)CC(NC[C@H](O)c1ccccc1)CC2` (single isomer, unassigned; (+)) [SR 58375A, hydrochloride], the results for the activation at 1 µM in data set [1] and in data set [2] were 97% and 100%, respectively.
On to `COc1ccc2c(c1)CC(NCC(O)c1ccccc1)CC2` (stereo not shown) [SR 58279A, 2-[(7-methoxy-1,2,3,4-tetrahydronaphth-2-yl)amino]-1-phenylethanol hydrochloride], for which the activation at 1 µM in data set [1] was found to be 30%; in data set [2] it was 50%.
As to `Oc1ccc2c(c1)CC(NCC(O)c1ccccc1)CC2` (stereo not shown) [SR 58306, 2-[(7-hydroxy-1,2,3,4-tetrahydronaphth-2-yl)amino]-1-phenylethanol], the “ΔT, average difference between interscapular BAT temperature and rectal temperature” value in the data set with interscapular BAT (10' after injection, anaesthetized rats (vehicle 0.06 ± 0.04)) was determined as 0.60 ± 0.10 °C; with interscapular BAT (20' after injection, anaesthetized rats (vehicle 0.10 ± 0.04)), 0.90 ± 0.10 °C; in the data set with interscapular BAT (30' after injection, anaesthetized rats (vehicle 0.14 ± 0.05)), 0.92 ± 0.08 °C.
Take `Oc1ccc2c(c1)CC(NCC(O)c1ccccc1)CC2` (stereo not shown) [SR 58306A, 2-[(7-hydroxy-1,2,3,4-tetrahydronaphth-2-yl)amino]-1-phenylethanol hydrochloride]: the values for the activation at 1 µM in data set [1] and in data set [2] were 78% and 80%, respectively.
As to `COc1ccc2c(c1)CC(NCC(O)c1cccc(Cl)c1)CC2` (stereo not shown) [SR 58338A, 2-[(7-methoxy-1,2,3,4-tetrahydronaphth-2-yl)amino]-1-(3-chloropheny)ethanol hydrochloride], the values for the activation at 1 µM in data set [1] and in data set [2] were 89% and 77%, respectively.
On to `Cl.Oc1ccc2c(c1)CC(NCC(O)c1cccc(Cl)c1)CC2` (stereo not shown) [SR 58339A, 2-[(7-hydroxy-1,2,3,4-tetrahydronaphth-2-yl)amino]-1-(3-chlorophenyl)-ethanol hydrochloride], for which the activation at 1 µM came to 92% in data set [1] and 103% in data set [2]. Also, the mortality entry with mice is “do not cause any mortality”.
In the case of `Oc1ccc2c(c1)CC(NC[C@H](O)c1ccccc1)CC2` (stereo partly drawn) [SR 58365A, (1R,2'RS)-2-[(7-hydroxy-1,2,3,4-tetrahydronaphth-2-yl)amino]-1-phenylethanol hydrochloride], the activation at 1 µM in data set [1] was found to be 78%; in data set [2], 96%.
For the compound `CCOC(=O)COc1ccc2c(c1)CC(NCC(O)c1cccc(Cl)c1)CC2.O=C(O)C(=O)O` (stereo not shown) [SR 58380A, 2-[(7-carbethoxymethoxy-1,2,3,4-tetrahydronaphth-2-yl)amino]-1-(3-chlorophenyl)ethanol oxalate], the activation at 1 µM in data set [1] was 90%; in data set [2], 96%. In addition, the mortality result in the data set on mice is reported as “do not cause any mortality”.
